Laboratory results taken from publication PMC11675283, “Anticholinesterase Activity and Bioactive Compound Profiling of Six Hop (Humulus lupulus L.) Varieties” (Foods, 2024).
Values after ≈ are worked out from the molar mass of the structure shown.

Molecular target: T1, tyrosinase from mushrooms
T1 construct: gene PPO3; commercial native mushroom tyrosinase (Sigma-Aldrich), isoenzyme mixture
Test: colorimetric diphenolase assay, absorbance at […] nm
Assay type: biochemical
Conditions: L-DOPA substrate

O=C(O)CCCCCCCC(=O)O [azelaic acid]
IC50: 1470 µg/mL (≈ 7.81 mM)
